In general, mass density refers to mass per unit of volume.

Structures are written as SMILES. ± gives the expanded uncertainty stated by the source.

These results are taken from the NIST ThermoML archive (doi:10.1021/acs.jced.7b00241).

The conditions of this series: Liquid; for mass density: 298.15 K, 101.33 kPa, Vibrating tube method; for Normal boiling temperature: Ebulliometric method (Recirculating still).

For `CC(C)CO` [2-methyl-1-propanol], the mass density stood at 798 ± 0.2 kg/m3 and the Normal boiling temperature turned out to be 107.83 ± 0.2 °C.
For `CC(=O)OCC(C)C` [2-methylpropyl ethanoate], the mass density is reported as 866.2 ± 0.2 kg/m3 and the Normal boiling temperature came to 116.8 ± 0.2 °C.
With `C[S+](C)[O-]` [dimethyl sulfoxide], the mass density is on record as 1095.5 ± 0.2 kg/m3 and the Normal boiling temperature came to 190.70 ± 0.2 °C.
